BindingDB's records for doi:10.1016/s0960-894x(03)00254-3 (Merck Research Laboratories, 2003)

Columns and labels:
[1] = Ability to bind to the […] integrin expressed as inhibitory concentration against ADP-stimulated aggregation of human gel-filtered platelets
[2] = Ability to bind to the alpha IIb beta-3 integrin expressed as inhibitory concentration against ADP-stimulated aggregation of human gel-filtered platelets

Row | IC50 [1] [nM] | IC50 [2] [nM] | SMILES
1 | > 3000 |  | O=C(O)C[C@H](NC(=O)CNC(=O)CCCc1ccc2c(n1)NCCC2)c1cccnc1 [(S)-3-Pyridin-3-yl-3-[2-(4-5,6,7,8-tetrahydro-[1,8]naphthyridin-2-yl-butyrylamino)-acetylamino]-propionic acid]
2 |  | > 3000 | O=C(O)C[C@H](NC(=O)Cn1c(C2CC2)ccc(NCc2ccc3c(n2)NCCC3)c1=O)c1cccc(F)c1 [(S)-3-(2-{6-Cyclopropyl-2-oxo-3-[(5,6,7,8-tetrahydro-[1,8]naphthyridin-2-ylmethyl)-amino]-2H-pyridin-1-yl}-acetylamino)-3-(3-fluoro-phenyl)-propionic acid]
3 |  | > 3000 | O=C(O)C[C@H](NC(=O)Cn1c(C2CC2)ccc(NCc2ccc3c(n2)NCCC3)c1=O)c1ccc2c(c1)OCC2 [(S)-3-(2-{6-Cyclopropyl-2-oxo-3-[(5,6,7,8-tetrahydro-[1,8]naphthyridin-2-ylmethyl)-amino]-2H-pyridin-1-yl}-acetylamino)-3-(2,3-dihydro-benzofuran-6-yl)-propionic acid]
4 |  | > 3000 | CCCc1ccc(NCc2ccc3c(n2)NCCC3)c(=O)n1CC(=O)N[C@@H](CC(=O)O)c1cccnc1 [3-(2-{2-Oxo-6-propyl-3-[(5,6,7,8-tetrahydro-[1,8]naphthyridin-2-ylmethyl)-amino]-2H-pyridin-1-yl}-acetylamino)-3-(S)-pyridin-3-yl-propionic acid]
5 |  | > 3000 | Cc1cnc(NCc2ccc3c(n2)NCCC3)c(=O)n1CC(=O)N[C@@H](CC(=O)O)c1cccnc1 [3-(2-{6-Methyl-2-oxo-3-[(5,6,7,8-tetrahydro-[1,8]naphthyridin-2-ylmethyl)-amino]-2H-pyrazin-1-yl}-acetylamino)-3-(S)-pyridin-3-yl-propionic acid]
6 | > 3000 |  | O=C(O)C[C@H](NC(=O)Cn1c(C2CC2)c(Cl)nc(NCc2ccc3c(n2)NCCC3)c1=O)c1ccc2c(c1)OCC2 [(S)-3-(2-{5-Chloro-6-cyclopropyl-2-oxo-3-[(5,6,7,8-tetrahydro-[1,8]naphthyridin-2-ylmethyl)-amino]-2H-pyrazin-1-yl}-acetylamino)-3-(2,3-dihydro-benzofuran-6-yl)-propionic acid]
7 | > 3000 |  | O=C(O)C[C@H](NC(=O)Cn1c(-c2ccccc2)c(Cl)nc(NCc2ccc3c(n2)NCCC3)c1=O)c1cccc(F)c1 [(S)-3-(2-{5-Chloro-2-oxo-6-phenyl-3-[(5,6,7,8-tetrahydro-[1,8]naphthyridin-2-ylmethyl)-amino]-2H-pyrazin-1-yl}-acetylamino)-3-(3-fluoro-phenyl)-propionic acid]
8 | > 3000 |  | CCc1c(Cl)nc(NCc2ccc3c(n2)NCCC3)c(=O)n1CC(=O)N[C@@H](CC(=O)O)c1cccc(F)c1 [(S)-3-(2-{5-Chloro-6-ethyl-2-oxo-3-[(5,6,7,8-tetrahydro-[1,8]naphthyridin-2-ylmethyl)-amino]-2H-pyrazin-1-yl}-acetylamino)-3-(3-fluoro-phenyl)-propionic acid]
9 |  | > 3000 | Cc1ccc(NCc2ccc3c(n2)NCCC3)c(=O)n1CC(=O)N[C@@H](CC(=O)O)c1cccnc1 [3-(2-{6-Methyl-2-oxo-3-[(5,6,7,8-tetrahydro-[1,8]naphthyridin-2-ylmethyl)-amino]-2H-pyridin-1-yl}-acetylamino)-3-(S)-pyridin-3-yl-propionic acid]
10 | > 3000 |  | O=C(O)C[C@H](NC(=O)Cn1c(C2CC2)c(Cl)nc(NCc2ccc3c(n2)NCCC3)c1=O)c1cccc(F)c1 [(S)-3-(2-{5-Chloro-6-cyclopropyl-2-oxo-3-[(5,6,7,8-tetrahydro-[1,8]naphthyridin-2-ylmethyl)-amino]-2H-pyrazin-1-yl}-acetylamino)-3-(3-fluoro-phenyl)-propionic acid]
11 | > 3000 |  | O=C(O)C[C@H](NC(=O)Cn1c(C2CC2)cnc(NCc2ccc3c(n2)NCCC3)c1=O)c1cccc(F)c1 [(S)-3-(2-{6-Cyclopropyl-2-oxo-3-[(5,6,7,8-tetrahydro-[1,8]naphthyridin-2-ylmethyl)-amino]-2H-pyrazin-1-yl}-acetylamino)-3-(3-fluoro-phenyl)-propionic acid]
12 | > 3000 |  | O=C(O)C[C@H](NC(=O)Cn1c(C2CC2)cnc(NCc2ccc3c(n2)NCCC3)c1=O)c1ccc2c(c1)OCO2 [(S)-3-Benzo[1,3]dioxol-5-yl-3-(2-{6-cyclopropyl-2-oxo-3-[(5,6,7,8-tetrahydro-[1,8]naphthyridin-2-ylmethyl)-amino]-2H-pyrazin-1-yl}-acetylamino)-propionic acid]
13 | > 3000 |  | Cc1c(Cl)nc(NCc2ccc3c(n2)NCCC3)c(=O)n1CC(=O)N[C@@H](CC(=O)O)c1cccc(F)c1 [(S)-3-(2-{5-Chloro-6-methyl-2-oxo-3-[(5,6,7,8-tetrahydro-[1,8]naphthyridin-2-ylmethyl)-amino]-2H-pyrazin-1-yl}-acetylamino)-3-(3-fluoro-phenyl)-propionic acid]
14 | > 3000 |  | O=C(O)C[C@H](NC(=O)Cn1c(C2CC2)c(Cl)nc(NCc2ccc3c(n2)NCCC3)c1=O)c1cnc2ccccc2c1 [(S)-3-(2-{5-Chloro-6-cyclopropyl-2-oxo-3-[(5,6,7,8-tetrahydro-[1,8]naphthyridin-2-ylmethyl)-amino]-2H-pyrazin-1-yl}-acetylamino)-3-quinolin-3-yl-propionic acid]
15 |  | > 3000 | O=C(O)C[C@H](NC(=O)Cn1c(C2CC2)ccc(NCc2ccc3c(n2)NCCC3)c1=O)c1cccnc1 [3-(2-{6-Cyclopropyl-2-oxo-3-[(5,6,7,8-tetrahydro-[1,8]naphthyridin-2-ylmethyl)-amino]-2H-pyridin-1-yl}-acetylamino)-3-(S)-pyridin-3-yl-propionic acid]
16 | > 3000 |  | O=C(O)C[C@H](NC(=O)Cn1c(C2CC2)cnc(NCc2ccc3c(n2)NCCC3)c1=O)c1cccnc1 [(S)-3-(2-{6-Cyclopropyl-2-oxo-3-[(5,6,7,8-tetrahydro-[1,8]naphthyridin-2-ylmethyl)-amino]-2H-pyrazin-1-yl}-acetylamino)-3-pyridin-3-yl-propionic acid]
17 |  | > 3000 | O=C(O)C[C@H](NC(=O)CN1CCCC(CCc2ccc3c(n2)NCCC3)C1=O)c1cccnc1 (stereo partly drawn) [3-(2-{2-Oxo-3-[2-(5,6,7,8-tetrahydro-[1,8]naphthyridin-2-yl)-ethyl]-piperidin-1-yl}-acetylamino)-3-(S)-pyridin-3-yl-propionic acid]
18 | > 3000 |  | CCc1cnc(NCc2ccc3c(n2)NCCC3)c(=O)n1CC(=O)N[C@@H](CC(=O)O)c1cccc(F)c1 [(S)-3-(2-{6-Ethyl-2-oxo-3-[(5,6,7,8-tetrahydro-[1,8]naphthyridin-2-ylmethyl)-amino]-2H-pyrazin-1-yl}-acetylamino)-3-(3-fluoro-phenyl)-propionic acid]
19 | > 3000 |  | O=C(O)C[C@H](NC(=O)Cc1cccc(CCc2ccc3c(n2)NCCC3)c1)c1cccnc1 [3-(S)-Pyridin-3-yl-3-(2-{3-[2-(5,6,7,8-tetrahydro-[1,8]naphthyridin-2-yl)-ethyl]-phenyl}-acetylamino)-propionic acid]
20 | > 3000 |  | O=C(O)C[C@H](NC(=O)CN1CC[C@H](CCc2ccc3c(n2)NCCC3)C1=O)c1cccnc1 [3-(2-{(S)-2-Oxo-3-[2-(5,6,7,8-tetrahydro-[1,8]naphthyridin-2-yl)-ethyl]-pyrrolidin-1-yl}-acetylamino)-3-(S)-pyridin-3-yl-propionic acid]
21 |  | > 3000 | C#C[C@H](CC(=O)O)NC(=O)Cn1c(C2CC2)ccc(NCc2ccc3c(n2)NCCC3)c1=O [(S)-3-(2-{6-Cyclopropyl-2-oxo-3-[(5,6,7,8-tetrahydro-[1,8]naphthyridin-2-ylmethyl)-amino]-2H-pyridin-1-yl}-acetylamino)-pent-4-ynoic acid]
22 | > 3000 |  | Cc1cnc(NCc2ccc3c(n2)NCCC3)c(=O)n1CC(=O)N[C@@H](CC(=O)O)c1cccc(F)c1 [(S)-3-(3-Fluoro-phenyl)-3-(2-{6-methyl-2-oxo-3-[(5,6,7,8-tetrahydro-[1,8]naphthyridin-2-ylmethyl)-amino]-2H-pyrazin-1-yl}-acetylamino)-propionic acid]
23 | > 3000 |  | O=C(O)C[C@H](NC(=O)Cn1c(C2CC2)c(Cl)nc(NCc2ccc3c(n2)NCCC3)c1=O)c1cccnc1 [(S)-3-(2-{5-Chloro-6-cyclopropyl-2-oxo-3-[(5,6,7,8-tetrahydro-[1,8]naphthyridin-2-ylmethyl)-amino]-2H-pyrazin-1-yl}-acetylamino)-3-pyridin-3-yl-propionic acid]
24 |  | > 3000 | O=C(O)C[C@H](NC(=O)Cn1cccc(NCc2ccc3c(n2)NCCC3)c1=O)c1cccnc1 [3-(2-{2-Oxo-3-[(5,6,7,8-tetrahydro-[1,8]naphthyridin-2-ylmethyl)-amino]-2H-pyridin-1-yl}-acetylamino)-3-(S)-pyridin-3-yl-propionic acid]
